Structures are written as SMILES. Read-outs that look alike come from different tables or passages of the source. Some results are limits rather than exact numbers.

Data set [1] concerns Gram-positive bacteria such as Lactobacilli. Conditions: cited from earlier work.
Data set [2] can be described thus: Redox potential and pH of media formulation before and after addition of test compounds. To be noted: M17-type medium. On the procedure:
After measurement of redox potential and pH several compounds (nitrogen and sulphur sources) were added to this medium and their effect on pH and redox potential was determined.
Redox values were read after the signal was stable for at least 30 seconds. In addition the pH was measured using a standard pH Electrode connected to a MP225 pH Meter (Mettler Toledo).

In a further data set the test system is Aspergillus niger. To be noted: cited from earlier work.
For another data set, the system named is S. aureus. To be noted: cited from earlier work.
The next data set relates to Penicillium notatum. To be noted: cited from earlier work.
For another data set, the system named is E. coli. Conditions: cited from earlier work.
Data set [3] concerns Lactobacillus gasseri KS 120.1. To be noted: for OD: OD at 590 nm. On the procedure: (§1) Growth was determined by measurement of optical density and pH at start, after 6 hours and after 24 hours.
(§2) All cultures were re-activated from cryopreserved (−80° C.) working stocks by cultivation on MRS agar for 1 to 3 days. A single colony from these plates was used to inoculate 5 ml of MRS broth. After incubation overnight, 10^7 cfu/ml were used to carry out the experiments.

Data set [4] relates to Lactobacillus jensenii KS 119.1. Conditions: for OD: OD at 590 nm. As for the experimental part: as §1, §2
Another data set deals with Saccharomyces cerevisiae. Conditions: cited from earlier work.
Data set [5] relates to tested lactobacilli (gasseri, crispatus and jensenii).
For a further data set, the system named is K. pneumoniae. Conditions: cited from earlier work.
For data set [6], the system named is Lactobacillus crispatus KS 119.4. To be noted: for OD: OD at 590 nm.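 As to all read-outs here: growth in MRS broth cultures, followed via optical density and pH at the start, after 6 h and after 24 h.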
The test system of another data set is bacterial vaginosis. Conditions: women with a negative redox potential; cited from earlier work.

Take `Clc1ccccc1C(c1ccccc1)(c1ccccc1)n1ccnc1` [Clotrimazole]: the “activity against Gram-positive bacteria” value in data set [1] was “bactericidal activity”.

As to `N[C@@H](CS)C(=O)O` [Cysteine], the “redox potential (Eh) of the medium after addition of the compound” value (“redox potential (Eh) of the medium” below) in data set [2] is reported as −103 mV.

In the case of `N[C@@H](CSSC[C@H](N)C(=O)O)C(=O)O` [Cystine], the “effect of the added compound on the redox potential” value in data set [2] is “high positive redox potential”.

As to `CS(C)(=O)=O` [MSM, dimethylsulfone], in data set [2], the “effect of the added compound on the redox potential” value is given as “high positive redox potential”.

With `C/C=C/C=C/C(=O)[O-].[K+]` [Potassium Sorbate, potassium sorbate], the “microbiostatic concentration for the inhibition of growth” value in the data set on Aspergillus niger was 200 to 500 µg/mL; in the data set on S. aureus, 50 to 100 µg/mL; in the data set with Penicillium notatum, 200 to 500 µg/mL; in the data set with E. coli it was 50 to 100 µg/mL; in the data set with Saccharomyces cerevisiae, 50 to 100 µg/mL; in the data set with K. pneumoniae it was 50 to 100 µg/mL. The Interpretation in [3] (potassium sorbate 1.00%) was 1; in data set [3] (potassium sorbate […]) it was 1; in [4] (potassium sorbate 0.10%) it was 0; in data set [4] (potassium sorbate 0.50%) it was 1; in data set [4] (potassium sorbate 1.00%), 2; in data set [4] (potassium sorbate […]), 2. Besides, the Interpretation in data set [6] (potassium sorbate 0.01%) was determined as 0; in data set [6] (potassium sorbate 0.05%), 0; in data set [6] (potassium sorbate 0.10%), 0; in data set [6] (potassium sorbate 0.50%), 0; in data set [6] (potassium sorbate 1.00%), 1; in data set [6] (potassium sorbate […]) it was 1. Further, the pH was found to be 5.16 in data set [3] (potassium sorbate 1.00%, 0 h); 5 in data set [3] (potassium sorbate 1.00%, 6 h); 5.07 in data set [3] (potassium sorbate 1.00%, 24 h); 5.31 in [3] (potassium sorbate […], 0 h); 5.26 in data set [3] (potassium sorbate […], 6 h); 5.26 in data set [3] (potassium sorbate […], 24 h). The pH in data set [4] (potassium sorbate 0.10%, 0 h) came to 4.5; in data set [4] (potassium sorbate 0.10%, 6 h), 4.5; in [4] (potassium sorbate 0.10%, 24 h) it was 4.5; in data set [4] (potassium sorbate 0.50%, 0 h) it was 4.5; in data set [4] (potassium sorbate 0.50%, 6 h) it was 4.5; in data set [4] (potassium sorbate 0.50%, 24 h), 4.85. The pH in [4] (potassium sorbate 1.00%, 0 h) turned out to be 5.03; in data set [4] (potassium sorbate 1.00%, 6 h) it was 5.01; in data set [4] (potassium sorbate 1.00%, 24 h), 5.09; in data set [4] (potassium sorbate […], 0 h) it was 5.32; in data set [4] (potassium sorbate […], 6 h), 5.18; in [4] (potassium sorbate […], 24 h), 5.25. Also, the pH is listed as 4.71 in data set [6] (potassium sorbate 0.01%, 0 h); 4.42 in data set [6] (potassium sorbate 0.01%, 6 h); 4.35 in data set [6] (potassium sorbate 0.01%, 24 h); 4.69 in data set [6] (potassium sorbate 0.05%, 0 h); 4.43 in [6] (potassium sorbate 0.05%, 6 h); 4.32 in data set [6] (potassium sorbate 0.05%, 24 h). Moreover, the pH in data set [6] (potassium sorbate 0.10%, 0 h) is recorded as 4.7; in data set [6] (potassium sorbate 0.10%, 6 h), 4.48; in data set [6] (potassium sorbate 0.10%, 24 h), 4.44; in [6] (potassium sorbate 0.50%, 0 h), 4.97; in data set [6] (potassium sorbate 0.50%, 6 h), 4.73; in data set [6] (potassium sorbate 0.50%, 24 h), 4.77. In addition, the pH is reported as 5.8 in data set [6] (potassium sorbate 1.00%, 0 h); 5.01 in [6] (potassium sorbate 1.00%, 6 h); 5.08 in data set [6] (potassium sorbate 1.00%, 24 h); 5.32 in [6] (potassium sorbate […], 0 h); 5.2 in data set [6] (potassium sorbate […], 6 h); 5.26 in data set [6] (potassium sorbate […], 24 h). Also, the OD in data set [3] (potassium sorbate 1.00%, 0 h) is on record as 0.54; in [3] (potassium sorbate 1.00%, 6 h) it was 0.78; in [3] (potassium sorbate 1.00%, 24 h), 0.97; in data set [3] (potassium sorbate […], 0 h), 0.53; in data set [3] (potassium sorbate […], 6 h) it was 0.73; in data set [3] (potassium sorbate […], 24 h), 0.72. For the same compound, the OD turned out to be 0.08 in data set [4] (potassium sorbate 0.10%, 0 h); 0.23 in data set [4] (potassium sorbate 0.10%, 6 h); 0.44 in data set [4] (potassium sorbate 0.10%, 24 h); 0.07 in data set [4] (potassium sorbate 0.50%, 0 h); 0.11 in [4] (potassium sorbate 0.50%, 6 h); 0.124 in data set [4] (potassium sorbate 0.50%, 24 h). Besides, the OD in data set [4] (potassium sorbate 1.00%, 0 h) turned out to be 0.18; in [4] (potassium sorbate 1.00%, 6 h) it was 0.26; in data set [4] (potassium sorbate 1.00%, 24 h) it was 0.16; in [4] (potassium sorbate […], 0 h) it was 0.17; in [4] (potassium sorbate […], 6 h), 0.24; in [4] (potassium sorbate […], 24 h), 0.13. The OD in [6] (potassium sorbate 0.01%, 0 h) stood at 0.7; in data set [6] (potassium sorbate 0.01%, 6 h) it was 1.36; in data set [6] (potassium sorbate 0.01%, 24 h), 1.47; in data set [6] (potassium sorbate 0.05%, 0 h), 0.6; in data set [6] (potassium sorbate 0.05%, 6 h), 1.16; in [6] (potassium sorbate 0.05%, 24 h), 1.24. Also, the OD in data set [6] (potassium sorbate 0.10%, 0 h) was found to be 0.68; in data set [6] (potassium sorbate 0.10%, 6 h), 1.34; in data set [6] (potassium sorbate 0.10%, 24 h), 1.24; in [6] (potassium sorbate 0.50%, 0 h), 0.67; in data set [6] (potassium sorbate 0.50%, 6 h), 1.24; in data set [6] (potassium sorbate 0.50%, 24 h), 1.15. Besides, the OD came to 0.65 in [6] (potassium sorbate 1.00%, 0 h); 1.13 in data set [6] (potassium sorbate 1.00%, 6 h); 0.96 in data set [6] (potassium sorbate 1.00%, 24 h); 0.64 in data set [6] (potassium sorbate […], 0 h); 0.99 in data set [6] (potassium sorbate […], 6 h); 0.76 in data set [6] (potassium sorbate […], 24 h). Besides, the “concentration required for a slight inhibition” value in data set [5] is recorded as not below 0.5%.

For the compound `N[C@@H](CCC(=O)O)C(=O)O` [glutamic acid, L-Glutamic acid], the “redox potential (Eh) of the medium” value in data set [2] was approximately 300 mV.

`Cc1ncc([N+](=O)[O-])n1CCO` [metronidazole]: in the data set with bacterial vaginosis, the “vaginal redox potential after a successful cure” value is given as “returned to a positive one”.

For `O=S(O)(O)=S` [thiosulfate, Na-Thiosulfate], the “redox potential (Eh) of the medium” value in data set [2] is given as −36 mV.

Values taken from US20200046837A1, “UROGENITAL MEDICAL DEVICE FORMULATION BASED ON SUITABLE BIOCHEMICAL COMPOSITIONS FOR THE STABILIZATION OF THE ACIDITY AND THE REDOX STATE OF THE VAGINAL FLUID” (PROBIOSWISS AG, priority 2016, published 2020).
